# In patent publication US20010025105A1, “Certain substituted 1-aryl-3-piperazine-1'-yl propanones” (Molecular Geriatarics Corporation, priority 1997, published 2001):
# Where a name gives a salt, the structure may show the parent alone.
# Tested on: not given
# Assay: not given
# Conditions: not given
row,melting point,SMILES
1,189 to 201 °C,"O=C(CCN1CCN(C(c2ccccc2)c2ccc(Cl)cc2)CC1)c1cccs1 (stereo not shown) (as salt: hydrochloride) [Example 89, 1-(2″-Thienyl)-3-[4′-(1′″-p-chlorophenyl-1′″-phenylmethyl)-1′-piperazinyl]-1-propanone dihydrochloride]"
2,225 °C (dec.),"O=C(CCN1CCN(Cc2ccccc2)CC1)c1ccc(-c2ccccc2)cc1 (as salt: hydrochloride) [Example 22, 1-p-Biphenyl-3-(4′-benzyl-1′-piperazinyl)-1-propanone dihydrochloride]"
3,183 to 184 °C,"O=C(CCN1CCN(C(=O)c2ccccc2F)CC1)c1cccs1 (as salt: hydrochloride) [Example 70, 1-(2″-Thienyl)-3-[4′-(o-fluorobenzoyl)-1′-piperazinyl]-1-propanone hydrochloride]"
4,> 250 °C (dec.),Cl.Cl.O=C1c2ccccc2SCC1CN1CCN(Cc2ccccc2)CC1 (stereo not shown)

row,SMILES,melting point
1,"O=C(CCN1CCN(Cc2ccccc2)CC1)c1cccn1S(=O)(=O)c1ccccc1 (as salt: hydrochloride) [Example 91, 1-(N-Phenylsulfonylpyrrol-2-yl)-3-(4′-benzyl-1′-piperazinyl)-1-propanone dihydrochloride]",215 °C (dec.)

# Tested on: TG3 immunoreactivity in OKA treated MSN1a cells
# Assay: MSN1a cell culture model, ELISA with TG3 antibody, okadaic acid treated cells
# Assay type: cell-based, human
# Conditions: 1 μM OKA, 2 hrs at 37° C., read-out: IC50 for inhibition of TG3 immunoreactivity in OKA treated MSN1a cells
# Method: This assay can thus be used to determine whether a drug is capable of preventing or intervening in AD by attenuating the production of abnormally phosphorylated paired helical filament epitopes associated with AD. To determine whether a drug is capable of preventing or intervening in AD activity, the MSN1a cells containing tau and associated proteins are treated with OKA capable of greatly increasing immunoreactivity of the MSN1a cells with AD specific monoclonal antibodies. Then, either prior to or concomitantly with OKA treatment, a compound of the present invention is added to the culture. If the compound prevents the induction of the AD epitopes in the MSN1a cells treated with OKA, then it is said to have anti-AD activity. If the AD-specific antibodies are highly reactive with the neuroblastoma cells following OKA treatment in the presence of compound, then the compound is said to be ineffectual against AD.
# The MSN1a human neuroblastoma line was subcloned from a population of MSN cells obtained from the laboratory of Dr. Peter Davies (Albert Einstein College of Medicine, New York, N.Y.). Cells were grown and maintained in flasks in RPMI 1640 medium, supplemented with 15% fetal calf serum, 100 U/ml penicillin, 100 U/ml Streptomycin, 0.5 ug/ml fungizone under 7.5% CO2 at 37° C.
# Stock solutions of drugs were prepared by dissolving the anhydrous powders to final concentrations of either 10 or 20 mM in 50% aqueous or 100% dimethyl sulfoxide (DMSO), respectively. Working solutions of drugs were prepared by dilution of the stock solutions with Kreb's Ringer in Hepes buffer (KRH) (128 mM NaCl, 5 mM KCl, 2.5 mM CaCl2 1.2 mM MgSO4, 1 mM Na2HPO4, 10 mM dextrose, 20 mM Hepes, pH 7.4). OKA is maintained as a 1 mM stock solution in DMSO prior to dilution to 4 μM in KRH.
# MSN cells grown in 225 cm^2 flasks are removed from the incubator, their medium decanted and replaced with 50 ml pre-warmed KRH. The cells are harvested by scraping prior to sedimentation at 1000 rpm for 5 min. The supernatants are discarded and the cell pellets are resuspended, the cells counted and diluted to a density of 2×10^4 cells/[…]. The cells are then plated in a 96 well plate at 50 μl/well and 25 μl of 4 μM OKA and 25 μl of drug are then added to the appropriate wells; the entire 96 well plate is then incubated for 2 hrs at 37° C. Depending on the dilution of drug added, this yields individual wells containing 1 μM OKA, 0-64 μM drug and 2×10^4 cells in 0.26% DMSO in KRH. The incubation is terminated by the addition of 20 μl of 6X extraction buffer and immediate freezing at −80° C. for at least one hr. The 6X extraction buffer contains: 25 mM Tris-HCl, pH 7.6, 150 mM NaCl, 5 mM EDTA, 24 mM β-glycerol phosphate, 10 μg/ml APMSF (4-amidinophenylmethane-sulfonyl flouride), and 2.5 μg/ml each of leupeptin, aprotinin, and pepstatin. The plates are thawed in a 37° C. water bath and 20 μl of cell lysate is added to a replica well in an ELISA plate that already contains 80 μl of coating buffer (15 mM Na2CO3 and 35 mM NaHCO3, pH 9.6). The plates are allowed to coat overnight at 4° C. The plates are washed four times with deionized water and then blocked for 30 min at 37° C. with 200 μl/well pre-warmed 1% bovine serum albumin in 10 mM Tris-HCl, pH 7.4, 150 mM NaCl, 3 mM NaN3 (BSA-TBS). After the blocking solution is removed, 100 μl/well of an appropriate dilution of pre-warmed primary antibody (eg., TG3 or PHF-1) in BSA-TBS is added and incubated at 37° C. for 30 min. Incubation is terninated by washing four times in deionized water at which time 100 μl of an appropriate dilution of pre-warmed secondary antibody (conjugated to alkaline phosphatase) in BSA-TBS is added to each well in the ELISA plate. Incubation is performed for 30 min at 37° C. followed by washing 4 times with deionized water. […] of prewarmed chromogenic substrate (1 mg/mnl p-nitrophenyl phosphate in 10% diethanolamine, 3 mM NaN3, 0.5 mM MgCl2, pH 9.8) is added and the plate incubated for 30 min at 37° C. […]
row,SMILES,IC50
1,"Cl.Cl.O=C(CCN1CCN(Cc2ccccc2)CC1)c1cc([N+](=O)[O-])c(Cl)s1 [Example 95, 1-(5″-Chloro-4″-nitro-2″-thienyl)-3-(4′-benzyl-1′-piperazinyl)-1-propanone dihydrochloride]",2800 nM

# Tested on: microtubule cytoskeleton of human CG neuroblastoma cells
# Assay: Antimicrotubule activity, tubulin immunofluorescence microscopy
# Assay type: cell-based
# Conditions: 2 hr at 37° C., read-out: Concentration where microtubule destabilization occurs
# Method: The compounds of the invention according to formula I are effective in destabilizing microtubules, thus are useful in treating certain neoplastic diseases. Indirect immunofluorescence microscopy using the monoclonal antibodies to tubulin is used herein to determine the activity of the compounds of this invention in promoting depolymerization of the microtubule cytoskeleton in cultured cells. The following assay was employed.
# Cultured human CG neuroblastoma cells were seeded 1:3 from confluent cultures onto sterile 11×22 mm coverslips in 6 well tissue culture plates 16 hr prior to treatment. The following day, the tissue culture medium is removed and the cells are exposed to various concentrations of compounds of this invention in Krebs Ringer Hepes (KRH) buffer containing a final concentration of 0.5% DMSO as carrier. Incubations were performed at 37° C. in a humidified 5% CO2 atmosphere for 2 hr. After incubation, the cells were fixed in 3% TEM grade formaldehyde in PBS for 45 min at room temperature.
# To visualize the effects of the compounds of the invention on the microtubule cytoskeleton, the cells were processed for tubulin immunofluorescence. Briefly, the cells were permeabilized in 0.5% Triton-X 100 in PBS for 5 min. The cells were washed 2× with PBS and aldehydes reduced using 0.5 mg/ml NaBH4 in PBS for 5 min. Subsequently, the cells were blocked for 10 min in 1.5% BSA and 1.5% nonfat dry milk in PBS (blocking solution, BS) for 10 min. The cells were then incubated for 30 min at 37° C. with the monoclonal antibody Tu27B which recognizes b-tubulin (dilution 1:20 in BS). Subsequently, the cells were washed 2× in PBS and once in BS. The cells were then incubated for 30 min at 37° C. with sheep antimouse IgG conjugated to FITC. After incubation, the cells were washed 2× in PBS and once in BS and incubated for 30 min at 37° C. with rabbit antisheep IgG conjugated to FITC. The cells were rinsed in PBS, counterstained with Hoechst 33285 in PBS (1 μg/ml), and rinsed in PBS. The coverslips were mounted in 9:1 glycerol:PBS containing 1 mg/ml p-phenylenediamine and sealed with nail polish.
# The cells were viewed using a Jenalumar epifluorescence microscope equipped with the proper filters for Fluorescein Isothiocyanate (FITC) excitation and emission. Lack of effect of a compound is evidenced by the presence of an intact microtubule network in interphase cells, or a mitotic spindle in dividing cells. Antineoplastic compounds of the invention at effective doses result in the disappearance of microtubules in both interphase and mitotic cells.
row,SMILES,minimal effective concentration
1,"Cl.Cl.O=C(CCN1CCN(Cc2cc(F)ccc2F)CC1)c1ccsc1 [Example 38, 1-(3″-Thienyl)-3-[4′-(2′″,5′″-difMuorobenzyl)-1′-piperazinyl]-1-propanone dihydrochloride]",20 µM
2,"Cl.Cl.O=C(CCN1CCN(Cc2ccccc2)CC1)c1cc([N+](=O)[O-])c(Cl)s1 [Example 95, 1-(5″-Chloro-4″-nitro-2″-thienyl)-3-(4′-benzyl-1′-piperazinyl)-1-propanone dihydrochloride]",20 µM
3,"Cl.Cl.O=C(CCN1CCN(Cc2ccccc2)CC1)c1cccs1 [Example 7, 1-(2″-Thienyl)-3-(4′-benzyl-1′-piperazinyl)-1-propanone dihydrochloride]",20 µM
4,Cl.Cl.O=C(CCN1CCN(Cc2ccccc2)CC1)c1ccc(C2CCCCC2)cc1 [Example 27],20 µM
5,"Cl.Cl.N#Cc1cccc(C(=O)CCN2CCN(Cc3ccccc3)CC2)c1 [Example 60, 1-(m-Cyanophenyl)-3-(4′-benzyl-1′-piperazinyl)-1-propanone dihydrochloride]",20 µM
6,Cl.Cl.O=C(CCN1CCN(Cc2ccccc2)CC1)c1ccc(Nc2ccc([N+](=O)[O-])cc2[N+](=O)[O-])cc1 [Example 113],20 µM
7,"Cl.Cl.N#Cc1ccc(C(=O)CCN2CCN(Cc3ccccc3)CC2)s1 [Example 85, 1-(5″-Cyano-2″-thienyl)-3-(4′-benzyl-1′-piperazinyl)-1-propanone dihydrochloride]",20 µM
8,"Cl.Cl.O=C(CCN1CCN(Cc2ccccc2)CC1)c1conc1-c1ccccc1 [Example 112, 1-(3″-Phenylisoxazol-4″-yl)-3-(4′-benzyl-1′-piperazinyl)-1-propanone dihydrochloride]",20 µM
9,"Cl.O=C(CCN1CCN(C(=O)c2c(F)cccc2F)CC1)c1ccccc1F [Example 41, 1-(o-Fluorophenyl)-3-[4′-(2″,6″-difluorobenzoyl)1′-piperazinyl]-1-propanone hydrochloride]",20 µM

# Same assay, conditions: Neuroblastoma cell, 2 hr at 37° C., read-out: Concentration where microtubule destabilization occurs
row,SMILES,minimal effective concentration
1,"O=C(CCN1CCN(C(=O)c2ccccc2F)CC1)c1cccs1 [Example 70, 1-(2″-Thienyl)-3-[4′-(o-fluorobenzoyl)-1′-piperazinyl]-1-propanone hydrochloride]",20 µM
2,"O=C(CCN1CCN(C(=O)c2c(F)cccc2F)CC1)c1ccc([N+](=O)[O-])cc1 [Example 40, 1-(p-Nitrophenyl)-3-[4′-(2″,6″-difluorobenzoyl)-1′-piperazinyl]-1-propanone hydrochloride]",20 µM
3,"CC[C@]1(O)C[C@@H]2CN(CCc3c([nH]c4ccccc34)[C@@](C(=O)OC)(c3cc4c(cc3OC)N(C)[C@H]3[C@@](O)(C(=O)OC)[C@H](OC(C)=O)[C@]5(CC)C=CCN6CC[C@]43[C@@H]65)C2)C1 [vinblastine, reference compound]",0.05 µM
4,"O=C(CCN1CCN(Cc2ccccc2)CC1)c1cc(C(F)(F)F)cc(C(F)(F)F)c1 [Example 9, 1-[3″,5″-Bis-(trifluoromethyl)phenyl]-3-(4′-benzyl-1′-piperazinyl)-1-propanone dihydrochloride]",20 µM
5,O=C(CCN1CCN(Cc2ccccc2)CC1)c1ccc(C(=O)CCN2CCN(Cc3ccccc3)CC2)cc1 [Example 50],20 µM
6,"O=C(CCN1CCN(Cc2ccccc2)CC1)c1ccc2c(c1)CCCC2 [Example 20, 1-(1″,2″,3″,4″-Tetrahydronaphth-6″-yl)-3-(4′-benzyl-1′-piperazinyl)-1-propanone dihydrochloride]",20 µM
7,"O=C(CCN1CCN(Cc2ccccc2)CC1)c1ccc(-c2ccccc2)cc1 [Example 22, 1-p-Biphenyl-3-(4′-benzyl-1′-piperazinyl)-1-propanone dihydrochloride]",20 µM
